Assay results reported in patent US12692233B2, “Anthelmintic compounds comprising a pyridine structure” (Intervet Inc., priority 2020, dated 2026).
Values belong to the compound of their own block, whether it stands above or below them.

Tests used:
[1] = biological target: C. elegans Slo-1a (Caenorhabditis elegans, UniProt Q95V25); assay: Agonistic activity at C. elegans Slo-1a, FLIPR membrane potential in CHO K1 cells; conditions: EC50 agonistic activity at C. elegans Slo-1a, CHO K1 cells stably transfected with slo-1a, membrane potential dye
Sequence of C. elegans Slo-1a (Q95V25 whole entry): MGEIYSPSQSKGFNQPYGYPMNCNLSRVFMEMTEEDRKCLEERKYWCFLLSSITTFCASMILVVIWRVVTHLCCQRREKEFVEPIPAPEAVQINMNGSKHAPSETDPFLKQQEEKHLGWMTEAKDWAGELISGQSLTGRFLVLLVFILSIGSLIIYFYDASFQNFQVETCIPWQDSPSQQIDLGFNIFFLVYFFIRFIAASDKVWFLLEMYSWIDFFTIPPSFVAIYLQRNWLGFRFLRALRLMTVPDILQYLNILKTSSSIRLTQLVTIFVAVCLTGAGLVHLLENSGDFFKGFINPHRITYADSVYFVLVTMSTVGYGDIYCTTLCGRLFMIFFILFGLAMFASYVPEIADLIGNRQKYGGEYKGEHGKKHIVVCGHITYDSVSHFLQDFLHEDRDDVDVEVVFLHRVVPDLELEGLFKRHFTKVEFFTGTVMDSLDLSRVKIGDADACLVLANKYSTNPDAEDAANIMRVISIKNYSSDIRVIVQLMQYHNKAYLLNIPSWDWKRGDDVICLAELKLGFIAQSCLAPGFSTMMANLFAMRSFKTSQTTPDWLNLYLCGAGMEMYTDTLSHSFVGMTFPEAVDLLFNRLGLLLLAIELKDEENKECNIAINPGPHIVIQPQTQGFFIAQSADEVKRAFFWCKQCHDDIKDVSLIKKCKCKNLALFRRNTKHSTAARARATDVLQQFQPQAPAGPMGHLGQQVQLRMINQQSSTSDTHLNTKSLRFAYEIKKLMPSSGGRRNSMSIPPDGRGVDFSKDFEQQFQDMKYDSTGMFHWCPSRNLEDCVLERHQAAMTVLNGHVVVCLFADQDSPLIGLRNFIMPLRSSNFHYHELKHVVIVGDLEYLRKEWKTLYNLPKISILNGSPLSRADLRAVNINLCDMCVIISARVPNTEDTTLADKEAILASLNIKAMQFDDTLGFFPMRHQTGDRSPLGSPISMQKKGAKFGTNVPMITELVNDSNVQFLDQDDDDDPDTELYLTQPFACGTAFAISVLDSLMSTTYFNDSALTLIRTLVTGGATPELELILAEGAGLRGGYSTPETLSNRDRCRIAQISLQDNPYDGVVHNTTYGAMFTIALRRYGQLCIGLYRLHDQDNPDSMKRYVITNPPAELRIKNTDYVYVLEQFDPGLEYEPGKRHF

[2] = test system: Ascaridia galli; assay: In vitro assay Ascaridia galli larval stage 3; format: cell-based; conditions: larval stage 3, 20 larvae per well, microscopic examination, read-out: MEC (minimum effective concentration) against Ascaridia galli L3
Description: (§1) […] galli (intestinal roundworm of chicken), larval stage 3 (“L3”); and Oesophagostumum dentatum (nodular worm of swine), larval stages 3 and 4 (respectively “L3” and “L4”) where suspended in a nutrient medium and distributed to 96 well plates with 20 larvae per well. The wells were spiked DMSO solutions of the compounds with declining concentration.

[3] = test system: Oesophagostumum dentatum; assay: In vitro assay Oesophagostumum dentatum larval stage 3; format: cell-based; conditions: larval stage 3, 20 larvae per well, microscopic examination; read-out: MEC (minimum effective concentration) against Oesophagostumum dentatum L3
Description: as §1

[4] = biological target: T1, human Maxi K channel (BK channel) (Homo sapiens, UniProt Q12791); assay: Agonistic activity at the human Maxi K channel (BK channel), FLIPR membrane potential in CHO K1 cells; format: cell-based; conditions: CHO K1 cells stably transfected with KCNMA1 and beta1 (KCNMB1) subunits, membrane potential dye
T1 construct: expressed in transfected cells; host or cells: CHO K1
T1 sequence (Q12791 1-1178 isoform Q12791-5): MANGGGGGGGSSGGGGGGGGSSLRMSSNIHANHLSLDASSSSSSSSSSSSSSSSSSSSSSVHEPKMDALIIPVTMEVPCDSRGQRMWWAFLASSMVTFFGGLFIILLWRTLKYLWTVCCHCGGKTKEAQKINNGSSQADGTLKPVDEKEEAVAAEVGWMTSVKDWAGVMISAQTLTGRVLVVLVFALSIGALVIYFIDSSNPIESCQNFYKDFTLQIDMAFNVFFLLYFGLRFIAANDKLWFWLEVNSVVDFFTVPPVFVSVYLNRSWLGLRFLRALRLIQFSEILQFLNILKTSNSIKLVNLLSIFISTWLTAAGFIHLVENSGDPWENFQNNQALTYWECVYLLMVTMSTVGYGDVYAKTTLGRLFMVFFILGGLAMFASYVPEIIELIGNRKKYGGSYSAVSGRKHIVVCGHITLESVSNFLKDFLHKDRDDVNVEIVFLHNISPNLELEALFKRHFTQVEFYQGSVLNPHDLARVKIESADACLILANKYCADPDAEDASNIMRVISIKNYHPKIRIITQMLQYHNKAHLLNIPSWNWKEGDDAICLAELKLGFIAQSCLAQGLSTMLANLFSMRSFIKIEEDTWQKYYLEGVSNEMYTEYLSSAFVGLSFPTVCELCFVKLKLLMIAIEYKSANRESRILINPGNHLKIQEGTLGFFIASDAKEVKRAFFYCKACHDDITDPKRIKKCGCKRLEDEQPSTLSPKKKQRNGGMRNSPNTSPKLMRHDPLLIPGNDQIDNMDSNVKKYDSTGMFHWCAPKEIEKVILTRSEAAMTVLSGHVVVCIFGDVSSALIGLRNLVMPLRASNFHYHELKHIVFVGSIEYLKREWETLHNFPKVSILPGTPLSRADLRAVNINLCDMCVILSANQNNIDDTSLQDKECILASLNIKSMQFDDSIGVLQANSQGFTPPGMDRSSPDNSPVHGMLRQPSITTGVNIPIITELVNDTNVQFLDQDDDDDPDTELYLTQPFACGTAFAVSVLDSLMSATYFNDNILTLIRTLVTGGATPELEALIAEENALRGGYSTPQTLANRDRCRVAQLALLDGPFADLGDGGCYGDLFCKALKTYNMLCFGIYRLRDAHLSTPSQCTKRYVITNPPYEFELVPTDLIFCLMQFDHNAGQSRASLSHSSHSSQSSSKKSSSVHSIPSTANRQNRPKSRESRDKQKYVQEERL
T1 sequence (Q16558 whole entry partner): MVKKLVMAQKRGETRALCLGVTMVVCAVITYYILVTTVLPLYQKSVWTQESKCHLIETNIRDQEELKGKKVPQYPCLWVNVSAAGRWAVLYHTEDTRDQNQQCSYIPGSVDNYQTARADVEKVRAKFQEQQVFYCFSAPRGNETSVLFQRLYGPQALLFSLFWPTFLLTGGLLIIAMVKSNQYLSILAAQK
Description: A CHO K1 cell line was stably transfected with the KCNMA1 (KCa1.1, U11058) and beta1 (KCNMB1) subunits of the human Maxi K channel (Ponte et al, Molecular Pharmacology 2012, 81(4), 567-577).
The complete measurement takes 150 s.

[5] = test system: Oesophagostumum dentatum; assay: In vitro assay Oesophagostumum dentatum larval stage 4; format: cell-based; conditions: larval stage 4, 20 larvae per well, microscopic examination; read-out: MEC (minimum effective concentration) against Oesophagostumum dentatum L4
Description: as §1

[6] = test system: Dirofilaria immitis; assay: In vitro assay Dirofilaria immitis L1 (microfilaria), motility; format: cell-based; conditions: 72 h, 3 days incubation, reduction in motility vs DMSO
Description: (§2) Approximately 500 D. immitis microfilaria were added to a microtiter plate containing a nutrient medium and the test compound in DMSO at varying concentrations. After incubation for 3 days, activity was evaluated as reduction in motility as compared to DMSO as negative control. Compounds were tested in duplicates. Based on the concentration response curves EC50 values were calculated.

[7] = test system: Acanthocheilonema viteae; assay: In vitro assay Acanthocheilonema viteae L1 (microfilaria), motility; format: cell-based; conditions: 72 h, 3 days incubation, reduction in motility vs DMSO
Description: as §2, with “A. viteae” for “D. immitis”

Compound: CCSc1cc(Sc2cc(Cl)cc(Cl)c2)ncc1C(=O)N[C@H]1CCOc2ccccc21 [Compound 74]
minimal effective concentration [3]: ≤ 50 µM
EC50 [4]: > 30 µM
minimal effective concentration [5]: ≤ 50 µM

Compound: O=C(Nc1csc2ccccc12)c1cnc(Sc2cccc(Cl)c2Cl)cc1N1CCOCC1 [Compound 48]
minimal effective concentration [2]: ≤ 50 µM
EC50 [4]: > 30 µM
minimal effective concentration [5]: ≤ 50 µM

Compound: COc1cc(Oc2cccc(Cl)c2Cl)ncc1C(=O)N[C@H]1CCCc2ccccc21 [Compound 96]
minimal effective concentration [2]: ≤ 50 µM
EC50 [4]: > 30 µM
EC50 [6]: < 10 µM

Compound: O=C(Nc1csc2ccccc12)c1cnc(Oc2cccc(Cl)c2Cl)cc1N1CCOCC1 [Compound 46]
EC50 [7]: < 10 µM
EC50 [4]: > 30 µM
EC50 [6]: < 10 µM

Compound: COc1cc(Oc2cc(Cl)cc(Cl)c2)ncc1C(=O)N[C@H]1CCCc2ccccc21 [Compound 85]
minimal effective concentration [2]: ≤ 50 µM
minimal effective concentration [3]: ≤ 50 µM
EC50 [4]: > 30 µM
EC50 [6]: < 10 µM

Compound: COc1cc(Oc2cccc(Cl)c2Cl)ncc1C(=O)N[C@H]1CCOc2ccccc21 [Compound 95]
EC50 [7]: < 10 µM
minimal effective concentration [2]: ≤ 50 µM
EC50 [4]: > 30 µM
EC50 [6]: < 10 µM

Compound: CN(C)c1cc(Cc2cc(Cl)cc(Cl)c2)ncc1C(=O)N[C@H]1CCCc2ccccc21 [Compound 111]
minimal effective concentration [3]: ≤ 50 µM
EC50 [4]: > 30 µM
minimal effective concentration [5]: ≤ 50 µM

Compound: O=C(N[C@H]1CCOc2ccccc21)c1cnc(Cc2cc(Cl)cc(Cl)c2)cc1N1CCOCC1 [Compound 112]
EC50 [1]: < 10 µM
minimal effective concentration [2]: ≤ 50 µM
minimal effective concentration [3]: ≤ 50 µM
EC50 [4]: > 30 µM

Compound: CN(C)c1cc(Oc2cccc(Cl)c2Cl)ncc1C(=O)Nc1csc2ccccc12 [Compound 37]
EC50 [7]: < 10 µM
minimal effective concentration [2]: ≤ 50 µM
EC50 [4]: > 30 µM
minimal effective concentration [5]: ≤ 50 µM

Compound: O=C(N[C@@H]1CCOc2ccccc21)c1cnc(Sc2cccc(Cl)c2Cl)cc1N1CCOCC1 [Compound 50]
EC50 [4]: > 30 µM
EC50 [6]: < 10 µM

Compound: O=C(N[C@@H]1CCOc2ccccc21)c1cnc(Oc2cc(Cl)cc(Cl)c2)cc1N1CCOCC1 [Compound 24]
minimal effective concentration [3]: ≤ 50 µM
EC50 [4]: > 30 µM
minimal effective concentration [5]: ≤ 50 µM
EC50 [6]: < 10 µM

Compound: COc1cc(Sc2cccc(Cl)c2Cl)ncc1C(=O)N[C@H]1CCOc2ccccc21 [Compound 68]
EC50 [1]: < 10 µM
EC50 [4]: > 30 µM
minimal effective concentration [5]: ≤ 50 µM

Compound: CCOc1cc(Oc2cc(Cl)cc(Cl)c2)ncc1C(=O)N[C@H]1CCc2ccccc21 [Compound 90]
EC50 [7]: < 10 µM
minimal effective concentration [2]: ≤ 50 µM
minimal effective concentration [3]: ≤ 50 µM
EC50 [4]: > 30 µM

Compound: O=C(Nc1cccc2ccccc12)c1cnc(Oc2cccc(Cl)c2Cl)cc1N1CCOCC1 [Compound 45]
EC50 [4]: > 30 µM
EC50 [6]: < 10 µM

Compound: CN(C)c1cc([S+]([O-])c2cc(Cl)cc(Cl)c2)ncc1C(=O)N[C@H]1CCOc2ccccc21 (some centres unmarked) [Compound 103]
EC50 [1]: < 10 µM
minimal effective concentration [2]: ≤ 50 µM
minimal effective concentration [3]: ≤ 50 µM
EC50 [4]: > 30 µM
minimal effective concentration [5]: ≤ 50 µM
EC50 [6]: < 10 µM

Compound: O=C(N[C@H]1CCc2ccccc21)c1cnc(Sc2cccc(Cl)c2Cl)cc1N1CCOCC1 [Compound 23]
EC50 [1]: < 1 µM
minimal effective concentration [2]: ≤ 50 µM
EC50 [4]: > 30 µM
EC50 [6]: < 10 µM

Compound: CN(C)c1cc(Oc2cc(Cl)cc(Cl)c2)ncc1C(=O)Nc1cccc2ccccc12 [Compound 32]
minimal effective concentration [3]: ≤ 50 µM
EC50 [4]: > 30 µM
EC50 [6]: < 10 µM

Compound: CN(C)c1cc(Sc2cc(Cl)cc(Cl)c2)ncc1C(=O)Nc1cccc2ccccc12 [Compound 16]
minimal effective concentration [2]: ≤ 50 µM
minimal effective concentration [3]: ≤ 50 µM
EC50 [4]: > 30 µM

Compound: CCOc1cc(Sc2cc(Cl)cc(Cl)c2)ncc1C(=O)N[C@H]1CCCc2ccccc21 [Compound 99]
minimal effective concentration [3]: ≤ 50 µM
EC50 [4]: > 30 µM

Compound: CN(C)c1cc(Oc2cc(Cl)cc(Cl)c2)ncc1C(=O)N[C@@H]1CCOc2ccccc21 [Compound 29]
minimal effective concentration [2]: ≤ 50 µM
EC50 [4]: > 30 µM
minimal effective concentration [5]: ≤ 50 µM
EC50 [6]: < 10 µM

Compound: O=C(N[C@H]1CCCc2ccccc21)c1cnc(Cc2cc(Cl)cc(Cl)c2)cc1N1CCOCC1 [Compound 113]
EC50 [1]: < 10 µM
minimal effective concentration [3]: ≤ 50 µM
EC50 [4]: > 30 µM

Compound: O=C(N[C@H]1CCc2ccccc21)c1cnc(Cc2cc(Cl)cc(Cl)c2)cc1N1CCOCC1 [Compound 117]
EC50 [1]: < 10 µM
minimal effective concentration [2]: ≤ 50 µM
minimal effective concentration [3]: ≤ 50 µM
minimal effective concentration [5]: ≤ 50 µM

Compound: CN(C)c1cc(S(=O)(=O)c2cc(Cl)cc(Cl)c2)ncc1C(=O)N[C@H]1CCCc2ccccc21 [Compound 102, (S)-6-((3,5-dichlorophenyl)sulfonyl)-4-(dimethylamino)-N-(1,2,3,4-tetrahydronaphthalen-1-yl)nicotinamide]
EC50 [4]: > 30 µM
minimal effective concentration [5]: ≤ 50 µM
EC50 [6]: < 10 µM

Compound: COc1cc(Oc2cccc(Cl)c2Cl)ncc1C(=O)N[C@H]1CCc2ccccc21 [Compound 94]
EC50 [7]: < 10 µM
EC50 [4]: > 30 µM
EC50 [6]: < 10 µM

Compound: CN(C)c1cc([S+]([O-])c2cc(Cl)cc(Cl)c2)ncc1C(=O)N[C@H]1CCCc2ccccc21 (some centres unmarked) [Compound 101]
minimal effective concentration [3]: ≤ 50 µM
EC50 [4]: > 30 µM
EC50 [6]: < 10 µM

Now from value to compound, other results behind:

EC50 [1]: < 10 µM
EC50 [4]: > 30 µM
Compound: CN(C)c1cc(Nc2cc(Cl)cc(Cl)c2)ncc1C(=O)N[C@H]1CCOc2ccccc21 [Compound 115]
minimal effective concentration [2]: ≤ 50 µM
minimal effective concentration [3]: ≤ 50 µM

EC50 [1]: < 10 µM
EC50 [4]: > 30 µM
Compound: COc1cc(Sc2cccc(Cl)c2Cl)ncc1C(=O)N[C@H]1CCCc2ccccc21 [Compound 66]
minimal effective concentration [3]: ≤ 50 µM
minimal effective concentration [5]: ≤ 50 µM

EC50 [1]: < 10 µM
EC50 [4]: > 30 µM
Compound: CN(C)c1cc(Nc2cc(Cl)cc(Cl)c2)ncc1C(=O)N[C@H]1CCc2ccccc21 [Compound 116]
minimal effective concentration [2]: ≤ 50 µM
minimal effective concentration [3]: ≤ 50 µM
minimal effective concentration [5]: ≤ 50 µM

EC50 [7]: < 10 µM
EC50 [4]: > 30 µM
Compound: CSc1cc(Oc2cccc(Cl)c2Cl)ncc1C(=O)N[C@H]1CCOc2ccccc21 [Compound 57]
minimal effective concentration [2]: ≤ 50 µM

EC50 [4]: > 30 µM
Compound: CN(C)c1cc(Cc2cc(Cl)cc(Cl)c2)ncc1C(=O)N[C@H]1CCc2ccccc21 [Compound 110]
minimal effective concentration [3]: ≤ 50 µM
minimal effective concentration [5]: ≤ 50 µM

EC50 [4]: > 30 µM
Compound: CCSc1cc(Sc2cccc(Cl)c2Cl)ncc1C(=O)N[C@H]1CCCc2ccccc21 [Compound 62]
minimal effective concentration [2]: ≤ 50 µM
minimal effective concentration [3]: ≤ 50 µM

EC50 [7]: < 10 µM
EC50 [1]: < 10 µM
EC50 [4]: > 30 µM
Compound: COc1cc(Sc2cc(Cl)cc(Cl)c2)ncc1C(=O)N[C@H]1CCc2ccccc21 [Compound 84]
minimal effective concentration [3]: ≤ 50 µM
minimal effective concentration [5]: ≤ 50 µM

EC50 [7]: < 10 µM
EC50 [1]: < 10 µM
EC50 [4]: > 30 µM
Compound: COc1cc(Sc2cccc(Cl)c2Cl)ncc1C(=O)N[C@H]1CCc2ccccc21 [Compound 67]
minimal effective concentration [2]: ≤ 50 µM
minimal effective concentration [5]: ≤ 50 µM

EC50 [4]: > 30 µM
Compound: COc1cc(Oc2cc(Cl)cc(Cl)c2)ncc1C(=O)N[C@H]1CCOc2ccccc21 [Compound 86]
minimal effective concentration [3]: ≤ 50 µM

EC50 [7]: < 10 µM
EC50 [4]: > 30 µM
Compound: CCOc1cc(Sc2cc(Cl)cc(Cl)c2)ncc1C(=O)N[C@H]1CCc2ccccc21 [Compound 97]

EC50 [1]: < 10 µM
EC50 [4]: > 30 µM
Compound: COc1cc(Sc2cc(Cl)cc(Cl)c2)ncc1C(=O)N[C@H]1CCOc2ccccc21 [Compound 83]
minimal effective concentration [2]: ≤ 50 µM
minimal effective concentration [3]: ≤ 50 µM

EC50 [1]: < 10 µM
EC50 [4]: > 30 µM
Compound: CN(C)c1cc(S(=O)(=O)c2cc(Cl)cc(Cl)c2)ncc1C(=O)N[C@H]1CCOc2ccccc21 [Compound 100]
minimal effective concentration [2]: ≤ 50 µM
minimal effective concentration [3]: ≤ 50 µM

EC50 [1]: < 10 µM
EC50 [4]: 10 to 30 µM
Compound: O=C(N[C@H]1CCc2ccccc21)c1cnc(Nc2cc(Cl)cc(Cl)c2)cc1N1CCOCC1 [Compound 109]
minimal effective concentration [2]: ≤ 50 µM
minimal effective concentration [3]: ≤ 50 µM

EC50 [1]: < 10 µM
EC50 [4]: > 30 µM
Compound: CSc1cc(Sc2cccc(Cl)c2Cl)ncc1C(=O)N[C@H]1CCc2ccccc21 [Compound 53]
minimal effective concentration [5]: ≤ 50 µM

EC50 [4]: > 30 µM
Compound: CCOc1cc(Oc2cccc(Cl)c2Cl)ncc1C(=O)N[C@H]1CCOc2ccccc21 [Compound 92]
minimal effective concentration [5]: ≤ 50 µM
